In brackets after ≈: the same amount, converted by molar mass. Where two headings read alike, the source gives them in different places.
Key:
DU-145 = assay type: cell-based, Human
FADU = assay type: cell-based, Human
NCI-H460 = assay type: cell-based, Human
SW1736 = assay type: cell-based, Human
SK-N-SH = assay type: cell-based, Human
BXPC-3 = assay type: cell-based, Human
[1] = system: P388 lymphocytic leukemia; assay type: cell-based, Murine
Micrococcus luteus = experiment: Disk susceptibility testing, Micrococcus luteus; assay type: cell-based
Neisseria gonorrhoeae = assay type: cell-based
[2] = system: eight bacteria and two fungi tested; experiment: Disk susceptibility testing, whole microbe panel; assay type: cell-based; settings: disk susceptibility, bacteria and fungi tested
Escherichia coli = settings: disk susceptibility
[3] = system: Stenotrophomonas maltophilia; settings: disk susceptibility
Enterobacter cloacae = settings: disk susceptibility
Streptococcus pneumoniae = settings: disk susceptibility
Staphylococcus aureus = settings: disk susceptibility
Enterococcus faecalis = settings: disk susceptibility
SK-Mel-3 = assay type: cell-based, Human
tubulin = settings: reported (Lin et al., 1988); cited from earlier work
full-panel NCl screen = settings: read-out: mean panel GI50 concentration; cited from earlier work
Candida albicans = experiment: Disk susceptibility testing, Candida albicans; assay type: cell-based
Cryptococcus neoformans = experiment: Disk susceptibility testing, Cryptococcus neoformans; assay type: cell-based
Solubility in water = settings: mg per 1 ml water at 25° C.
[4] = murine P-388 leukemia, 48 hours
[5] = Neisseria gonorrhoeae, disk susceptibility

| Molecule | GI50 Prostate DU-145 (DU-145; DU-145, 48 hours) | GI50 Pharynx FADU (FADU; FADU, 48 hours) | GI50 Lung-NSC NCI-H460 (NCI-H460; NCI-H460, 48 hours) | GI50 Thyroid SW1736 (SW1736; SW1736, 48 hours) | GI50 Neuroblast SK-N-SH (SK-N-SH; SK-N-SH, 48 hours) | GI50 Pancreas BXPC-3 (BXPC-3; BXPC-3, 48 hours) | ED50 P-388 [1, 4] | Minimum inhibitory amount per disk (Micrococcus luteus) | Minimum inhibitory amount per disk (Neisseria gonorrhoeae; [5]) | antimicrobial growth inhibition (in words) [2] | further results |
| --- | --- | --- | --- | --- | --- | --- | --- | --- | --- | --- | --- |
| COc1ccc(/C=C/c2cc(OC)c(OC)c(OC)c2)cc1O [Compound 4a, (E)-combretastatin A-4] | 0.037 µg/mL (≈ 0.117 µM) | 0.040 µg/mL (≈ 0.126 µM) | 0.038 µg/mL (≈ 0.12 µM) | 0.080 µg/mL (≈ 0.253 µM) | 0.029 µg/mL (≈ 0.0917 µM) | 3.9 µg/mL (≈ 12.3 µM) | 0.280 µg/mL (≈ 0.885 µM) | 25–50 μg/disk |  |  |  |
| CN(C)C1C(=O)C(C(N)=O)=C(O)C2(O)C(=O)C3=C(O)c4c(O)cccc4C(C)(O)C3CC12.COc1ccc(C=Cc2cc(OC)c(OC)c(OC)c2)cc1OP(=O)(O)O (stereo not shown) [Compound 5r, Tetracycline combretastatin A-4 3-O-phosphate] | 0.058 µg/mL | 0.0055 µg/mL | 0.0046 µg/mL | 0.012 µg/mL | 0.0032 µg/mL | 0.57 µg/mL | 0.037 µg/mL | 0.78–1.56 μg/disk | 3.12–6.25 μg/disk | inhibited the growth of all Gram-negative and Gram-positive bacteria tested | Minimum inhibitory concentration (Escherichia coli): 3.12–6.25 μg/disk; Minimum inhibitory concentration [3]: 6.25–12.5 μg/disk; Minimum inhibitory concentration (Enterobacter cloacae): 3.12–6.25 μg/disk; Minimum inhibitory concentration (Streptococcus pneumoniae): 0.195–0.39 μg/disk; Minimum inhibitory concentration (Staphylococcus aureus): 0.195–0.39 μg/disk; Minimum inhibitory concentration (Enterococcus faecalis): 25–50 μg/disk |
| Combretastatin A-4 [Compound 1a, reference compound] |  |  |  |  |  |  |  |  |  |  | GI50 Prostate DU-145 (DU-145): 0.00076 µg/mL; GI50 Pharynx FADU (FADU): 0.00065 µg/mL; GI50 Lung-NSC NCI-H460 (NCI-H460): 0.00056 µg/mL; GI50 Thyroid SW1736 (SW1736): 0.00071 µg/mL; GI50 Neuroblast SK-N-SH (SK-N-SH): 0.00026 µg/mL; GI50 Pancreas BXPC-3 (BXPC-3): >0.1 µg/mL; GI50 Melanoma SK-Mel-3 (SK-Mel-3): 0.0002 µg/mL; ED50 P-388 [1]: 0.00266 µg/mL; Minimum inhibitory amount per disk (Neisseria gonorrhoeae): 25–50 μg/disk; growth inhibition of Neisseria gonorrhoeae (in words) (Neisseria gonorrhoeae): inhibited growth; inhibition at the colchicine binding site of tubulin (tubulin): 97%; GI50 (full-panel NCl screen): 6.61 nM |
| Manganese combretastatin A-4 3′-O-phosphate [Compound 5e] | <0.001 µg/mL | 0.00091 µg/mL | 0.0015 µg/mL | 14.7 µg/mL | 0.014 µg/mL | 0.20 µg/mL | 0.016 µg/mL |  | 6.25–12.5 μg/disk | inhibitory to opportunistic fungi | GI50 Melanoma SK-Mel-3 (SK-Mel-3; SK-Mel-3, 48 hours): 0.0036 µg/mL; Minimum inhibitory concentration (Candida albicans): 25–50 μg/disk; Minimum inhibitory concentration (Cryptococcus neoformans): 12.5–25 μg/disk; Solubility (Solubility in water): 3000 µg/mL |

Reference: patent publication US7018987B1 (priority 1998, dated 2006)
